We go through 51 compounds from the supplement of paper PMC12137928.

Where a name gives a salt, the structure may show the parent alone.

For the experiment, the system named is HCT116. As to conditions: 72 h. A digest of the protocol: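 HCT116 cells were seeded at 250 per well in 1536-well plates and left 5 h to attach. CellTiter-Glo luminescence was scaled to vehicle (0%) and positive control (-100%), then pattern-corrected. IC50 and maximal efficacy came from four-parameter Hill fits.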

In the case of `CO[C@@H]1[C@@H](OC(N)=O)[C@@H](O)[C@H](Oc2ccc3c(O)c(NC(=O)c4ccc(O)c(CC=C(C)C)c4)c(=O)oc3c2C)OC1(C)C` [Novobiocin sodium], the IC50 cell viability was more than 45.8 µM (ICRF193 0 nM) and more than 45.8 µM (ICRF193 200 nM).
For the compound `NCCC[C@H](NC(=O)[C@@H]1CCCN1C(=O)[C@@H]1CSSC[C@H](N)C(=O)N[C@@H](Cc2ccc(O)cc2)C(=O)N[C@@H](Cc2ccccc2)C(=O)N[C@@H](CCC(N)=O)C(=O)N[C@@H](CC(N)=O)C(=O)N1)C(=O)NCC(N)=O` [ORNIPRESSIN], the IC50 cell viability by setting is: (ICRF193 0 nM) more than 45.8 µM; (ICRF193 200 nM) more than 45.8 µM.
`NCCC[C@H](N)C(=O)O` [ORNITHINE HYDROCHLORIDE]: the IC50 cell viability reads like this: (ICRF193 0 nM) more than 45.8 µM; (ICRF193 200 nM) more than 45.8 µM.
For `CN1CCCN=C1/C=C/c1cccc(O)c1` [OXANTEL PAMOATE], the IC50 cell viability reads like this: (ICRF193 0 nM) more than 45.8 µM; (ICRF193 200 nM) more than 45.8 µM.
On to `CNc1ncc(-c2ccc3c(=O)c(C(=O)O)cn(C4CC4)c3c2C)cc1C` [OZENOXACIN], for which the IC50 cell viability is more than 45.8 µM (ICRF193 0 nM) and more than 45.8 µM (ICRF193 200 nM).
Take `CC1CC(=O)NN=C1c1ccc(NCC(C)(C)NCC(O)COc2cc(Cl)ccc2C#N)cc1` (configuration not stated) [Oberadilol]: the IC50 cell viability runs as follows: (ICRF193 0 nM) more than 45.8 µM; (ICRF193 200 nM) more than 45.8 µM.
On to `CNS(=O)(=O)C[C@H]1CC[C@H](N(C)c2[nH]cnc3nccc2-3)CC1` [Oclacitinib], for which the IC50 cell viability reads like this: (ICRF193 0 nM) more than 45.8 µM; (ICRF193 200 nM) more than 45.8 µM.
With `CCCCCCCCCCCCCCCCCC(=O)OCC(C)O` (configuration not stated) [Octadecanoic acid, monoester with 1,2-propanediol], the IC50 cell viability was more than 45.8 µM (ICRF193 0 nM) and more than 45.8 µM (ICRF193 200 nM).
Turning to `CCCCCCCCCCCCCCCCCC(=O)O` [Octadecanoic acid], the IC50 cell viability runs as follows: (ICRF193 0 nM) more than 45.8 µM; (ICRF193 200 nM) more than 45.8 µM.
In the case of `CCCCCCCC(=O)O` [Octanoic acid], the IC50 cell viability runs as follows: (ICRF193 0 nM) more than 45.8 µM; (ICRF193 200 nM) more than 45.8 µM.
As to `CCCCC(CC)COC(=O)C=Cc1ccc(OC)cc1` (configuration not stated) [Octinoxate], the IC50 cell viability was more than 45.8 µM (ICRF193 0 nM) and more than 45.8 µM (ICRF193 200 nM).
For `CCCCC(CC)COC(=O)C(C#N)=C(c1ccccc1)c1ccccc1` (configuration not stated) [Octocrylene], the IC50 cell viability is more than 45.8 µM (ICRF193 0 nM) and more than 45.8 µM (ICRF193 200 nM).
In turn, `NCC(O)c1ccc(O)cc1` (configuration not stated) [Octopamine] returned an IC50 cell viability (ICRF193 0 nM) of more than 45.8 µM and an IC50 cell viability (ICRF193 200 nM) of more than 45.8 µM.
Take `COC(=O)CCCCC(CCSS/C(CCO)=C(/C)N(C=O)Cc1cnc(C)nc1N)SC(C)=O` (configuration not stated) [Octotiamine]: the IC50 cell viability is, setting by setting: (ICRF193 0 nM) more than 45.8 µM; (ICRF193 200 nM) more than 45.8 µM.
Consider `C[C@@H](O)[C@@H]1NC(=O)[C@H](CCCCN)NC(=O)[C@@H](Cc2c[nH]c3ccccc23)NC(=O)[C@H](Cc2ccccc2)NC(=O)[C@@H](NC(=O)[C@H](N)Cc2ccccc2)CSSC[C@@H](C(=O)N[C@H](CO)[C@@H](C)O)NC1=O` [Octreotide acetate], for which the IC50 cell viability reads like this: (ICRF193 0 nM) more than 45.8 µM; (ICRF193 200 nM) more than 45.8 µM.
In the case of `Cc1cc2c(s1)Nc1ccccc1N=C2N1CCN(C)CC1` [Olanzapine], the IC50 cell viability by setting is: (ICRF193 0 nM) more than 45.8 µM; (ICRF193 200 nM) more than 45.8 µM.
`O=C(c1cc(Cc2n[nH]c(=O)c3ccccc23)ccc1F)N1CCN(C(=O)C2CC2)CC1` [Olaparib]: the IC50 cell viability by setting is: (ICRF193 0 nM) more than 45.8 µM; (ICRF193 200 nM) more than 45.8 µM.
Turning to `CCCc1nc(C(C)(C)O)c(C(=O)OCc2oc(=O)oc2C)n1Cc1ccc(-c2ccccc2-c2nnn[nH]2)cc1` [Olmesartan medoxomil], the IC50 cell viability was more than 45.8 µM (ICRF193 0 nM) and more than 45.8 µM (ICRF193 200 nM).
Consider `CCCc1nc(C(C)(C)O)c(C(=O)O)n1Cc1ccc(-c2ccccc2-c2nnn[nH]2)cc1` [Olmesartan], for which the IC50 cell viability runs as follows: (ICRF193 0 nM) more than 45.8 µM; (ICRF193 200 nM) more than 45.8 µM.
For `COc1ccc(CC(C)(C)NC[C@H](O)c2cc(O)cc3c2OCC(=O)N3)cc1` [Olodaterol], the IC50 cell viability is more than 45.8 µM (ICRF193 0 nM) and more than 45.8 µM (ICRF193 200 nM).
With `CN(C)CC/C=C1/c2ccccc2COc2ccc(CC(=O)O)cc21` [Olopatadine hydrochloride], the IC50 cell viability reads like this: (ICRF193 0 nM) more than 45.8 µM; (ICRF193 200 nM) more than 45.8 µM.
For the compound `Cc1[nH]c(=O)c(C#N)cc1-c1ccc2nccn2c1` [Olprinone], the IC50 cell viability by setting is: (ICRF193 0 nM) more than 45.8 µM; (ICRF193 200 nM) more than 45.8 µM.
Turning to `O=C(O)c1cc(/N=N/c2ccc(O)c(C(=O)O)c2)ccc1O` [Olsalazine sodium], the IC50 cell viability by setting is: (ICRF193 0 nM) more than 45.8 µM; (ICRF193 200 nM) more than 45.8 µM.
For the compound `COC(=O)N[C@H](C(=O)N1CCC[C@H]1C(=O)Nc1ccc([C@@H]2CC[C@@H](c3ccc(NC(=O)[C@@H]4CCCN4C(=O)[C@@H](NC(=O)OC)C(C)C)cc3)N2c2ccc(C(C)(C)C)cc2)cc1)C(C)C` [Ombitasvir], the IC50 cell viability by setting is: (ICRF193 0 nM) more than 45.8 µM; (ICRF193 200 nM) more than 45.8 µM.
For the compound `COc1ccc2[nH]c([S+]([O-])Cc3ncc(C)c(OC)c3C)nc2c1` (configuration not stated) [Omeprazole], the IC50 cell viability is, setting by setting: (ICRF193 0 nM) more than 45.8 µM; (ICRF193 200 nM) more than 45.8 µM.
Compound `Cc1nccn1CC1CCc2c(c3ccccc3n2C)C1=O` (configuration not stated) [Ondansetron] yielded an IC50 cell viability (ICRF193 0 nM) of more than 45.8 µM and an IC50 cell viability (ICRF193 200 nM) of more than 45.8 µM.
Consider `OCCN1CCN(CCCN2c3ccccc3C=Cc3ccccc32)CC1` [Opipramol dihydrochloride], for which the IC50 cell viability reads like this: (ICRF193 0 nM) more than 45.8 µM; (ICRF193 200 nM) more than 45.8 µM.
Regarding `C[C@@H]1CN(c2c(F)c(F)c3c(=O)c(C(=O)O)cn(C4CC4)c3c2F)C[C@H](C)N1` [Orbifloxacin], the IC50 cell viability (ICRF193 0 nM) was more than 45.8 µM and the IC50 cell viability (ICRF193 200 nM) is more than 45.8 µM.
Turning to `CCCCCCCCCCC[C@@H](C[C@@H]1OC(=O)[C@H]1CCCCCC)OC(=O)[C@H](CC(C)C)NC=O` [Orlistat], the IC50 cell viability is, setting by setting: (ICRF193 0 nM) more than 45.8 µM; (ICRF193 200 nM) more than 45.8 µM.
For `COc1cc(C)c(Cc2cnc(N)nc2N)cc1OC` [Ormetoprim], the IC50 cell viability is more than 45.8 µM (ICRF193 0 nM) and more than 45.8 µM (ICRF193 200 nM).
For the compound `O=C(O)c1cc(=O)[nH]c(=O)[nH]1` [Orotic acid], the IC50 cell viability is more than 45.8 µM (ICRF193 0 nM) and more than 45.8 µM (ICRF193 200 nM).
On to `Cc1ccccc1C(OCCN(C)C)c1ccccc1` (configuration not stated) [Orphenadrine dihydrogen citrate], for which the IC50 cell viability was more than 45.8 µM (ICRF193 0 nM) and more than 45.8 µM (ICRF193 200 nM).
Consider `CCOC(=O)C1=C[C@@H](OC(CC)CC)[C@H](NC(C)=O)[C@@H](N)C1` [Oseltamivir Phosphate], for which the IC50 cell viability by setting is: (ICRF193 0 nM) more than 45.8 µM; (ICRF193 200 nM) more than 45.8 µM.
On to `OCCOc1ccc(/C(=C(/CCCl)c2ccccc2)c2ccccc2)cc1` [Ospemifene], for which the IC50 cell viability (ICRF193 0 nM) is more than 45.8 µM and the IC50 cell viability (ICRF193 200 nM) was more than 45.8 µM.
As for `O=C(O)c1nc(=O)[nH]c(=O)[nH]1` [Oteracil], the IC50 cell viability by setting is: (ICRF193 0 nM) more than 45.8 µM; (ICRF193 200 nM) more than 45.8 µM.
Take `C[C@]12CC[C@H]3[C@@H](CCC4=C(O)C(=O)CC[C@@H]43)[C@@H]1CC[C@@H]2OC(=O)CCC1CCCC1` [Oxabolone cipioncate]: the IC50 cell viability runs as follows: (ICRF193 0 nM) more than 45.8 µM; (ICRF193 200 nM) more than 45.8 µM.
For `Cc1onc(-c2ccccc2)c1C(=O)N[C@@H]1C(=O)N2[C@@H]1SC(C)(C)[C@@H]2C(=O)O` [Oxacillin sodium], the IC50 cell viability (ICRF193 0 nM) is more than 45.8 µM and the IC50 cell viability (ICRF193 200 nM) was more than 45.8 µM.
`O=C(O)C(=O)O.[NH-][C@@H]1CCCC[C@H]1[NH-].[Pt+2]` [Oxaliplatin]: the IC50 cell viability reads like this: (ICRF193 0 nM) more than 45.8 µM; (ICRF193 200 nM) more than 45.8 µM.
As to `C[N+]1(CC2COC(c3ccccc3)(C3CCCCC3)O2)CCCCC1` (configuration not stated) [Oxapium iodide], the IC50 cell viability (ICRF193 0 nM) was more than 45.8 µM and the IC50 cell viability (ICRF193 200 nM) was more than 45.8 µM.
With `O=C(O)CCc1nc(-c2ccccc2)c(-c2ccccc2)o1` [Oxaprozin], the IC50 cell viability (ICRF193 0 nM) was more than 45.8 µM and the IC50 cell viability (ICRF193 200 nM) was more than 45.8 µM.
For `CCN(CC)CCOCCOC(=O)C(CC)(CC)c1ccccc1` [Oxeladin Citrate], the IC50 cell viability is, setting by setting: (ICRF193 0 nM) more than 45.8 µM; (ICRF193 200 nM) more than 45.8 µM.
Regarding `CC[C@H]1C[C@H]2[C@@H]3CCC4=CC(=O)CC[C@@H]4[C@H]3CC[C@]2(C)[C@H]1O` [Oxendolone], the IC50 cell viability reads like this: (ICRF193 0 nM) more than 45.8 µM; (ICRF193 200 nM) more than 45.8 µM.
On to `CC[N+]1(C)[C@@H]2CC(OC(=O)[C@H](CO)c3ccccc3)C[C@H]1[C@@H]1O[C@@H]12` (some centres not stated) [Oxitropium Bromide], for which the IC50 cell viability by setting is: (ICRF193 0 nM) more than 45.8 µM; (ICRF193 200 nM) more than 45.8 µM.
For the compound `C=CCOc1ccccc1OCC(O)CNC(C)C` (configuration not stated) [Oxprenolol hydrochloride], the IC50 cell viability is, setting by setting: (ICRF193 0 nM) more than 45.8 µM; (ICRF193 200 nM) more than 45.8 µM.
Regarding `CCN(CC)CC#CCOC(=O)C(O)(c1ccccc1)C1CCCCC1` (configuration not stated) [Oxybutynin chloride], the IC50 cell viability was more than 45.8 µM (ICRF193 0 nM) and more than 45.8 µM (ICRF193 200 nM).
On to `Cc1cc(C(C)(C)C)c(O)c(C)c1CC1=NCCN1` [Oxymetazoline hydrochloride], for which the IC50 cell viability reads like this: (ICRF193 0 nM) more than 45.8 µM; (ICRF193 200 nM) more than 45.8 µM.
With `COc1cc2[nH]c(C)c(CCN3CCN(c4ccccc4)CC3)c2cc1OC` [Oxypertine hydrochloride], the IC50 cell viability is more than 45.8 µM (ICRF193 0 nM) and more than 45.8 µM (ICRF193 200 nM).
In the case of `CN1CCCN=C1COC(=O)C(O)(c1ccccc1)C1CCCCC1` (configuration not stated) [Oxyphencyclimine hydrochloride], the IC50 cell viability runs as follows: (ICRF193 0 nM) more than 45.8 µM; (ICRF193 200 nM) more than 45.8 µM.
Take `CC[N+](C)(CC)CCOC(=O)C(O)(c1ccccc1)C1CCCCC1` (configuration not stated) [Oxyphenonium bromide]: the IC50 cell viability reads like this: (ICRF193 0 nM) more than 45.8 µM; (ICRF193 200 nM) more than 45.8 µM.
For the compound `CN(C)[C@@H]1C(O)=C(C(N)=O)C(=O)[C@@]2(O)C(O)=C3C(=O)c4c(O)cccc4[C@@](C)(O)[C@H]3[C@H](O)[C@@H]12` [Oxytetracycline], the IC50 cell viability reads like this: (ICRF193 0 nM) more than 45.8 µM; (ICRF193 200 nM) more than 45.8 µM.
As to `CC[C@H](C)[C@@H]1NC(=O)[C@H](Cc2ccc(O)cc2)NC(=O)[C@@H](N)CSSC[C@@H](C(=O)N2CCC[C@H]2C(=O)N[C@@H](CC(C)C)C(=O)NCC(N)=O)NC(=O)[C@H](CC(N)=O)NC(=O)[C@H](CCC(N)=O)NC1=O` [Oxytocin], the IC50 cell viability was more than 45.8 µM (ICRF193 0 nM) and more than 45.8 µM (ICRF193 200 nM).
